# Data from US9980973B2, “Bicyclic heterocycle compounds and their uses in therapy” (ASTEX THERAPEUTICS LIMITED, priority 2012, dated 2018).
# Where a name gives a salt, the structure may show the parent alone. Read-outs that look alike come from different tables or passages of the source.
# System: EVSA-T (human breast carcinoma)
# Assay: Anti-proliferative activity, Alamar Blue assay, EVSA-T
# Assay type: cell-based
# [1] = Homo sapiens, EVSA-T, 72 h, EVSA-T cells, 72 hours, Alamar Blue, read-out: EVSA-T prolif
# [2] = Homo sapiens, EVSA-T, read-out: EC50 in EVSA-T cell line assays
Compound,EC50 [1],EC50 [2],"EC50 (EVSA-T cells, 72 hours, Alamar Blue, dihydrochloride, read-out: EVSA-T prolif)"
"C[C@@H]1CN(CC(=O)N2CC(C)(C)c3ncc(Cc4ccc(F)cc4)cc32)[C@@H](CN2CCOCC2(C)C)CN1 [Example 5, 2-[(2R,5R)-2-[(3,3-Dimethylmorpholin-4-yl)methyl]-5-methylpiperazin-1-yl]-1-{6-[(4-fluorophenyl)methyl]-3,3-dimethyl-1H,2H,3H-pyrrolo[3,2-b]pyridin-1-yl}ethan-1-one dihydrochloride]",0.3 nM,< 1000 nM,–
"CC(=O)N1CCN(C[C@H]2CN[C@H](C)CN2CC(=O)N2CC(C)(C)c3ncc(Cc4ccc(F)cc4)cc32)C(C)C1 (mixture of isomers) [Example 33, 2-[(2R,5R)-2-[(4-Acetyl-2-methylpiperazin-1-yl)methyl]-5-methylpiperazin-1-yl]-1-{6-[(4-fluorophenyl)methyl]-3,3-dimethyl-1H,2H,3H-pyrrolo[3,2-b]pyridin-1-yl}ethan-1-one dihydrochloride]",0.46 nM,< 1000 nM,–
"C[C@@H]1CN(CC(=O)N2CC(C)(C)c3ncc(Cc4ccc(F)cc4)cc32)[C@@H](CN2CCC[C@@H](F)C2)CN1 [Example 14, 1-{6-[(4-Fluorophenyl)methyl]-3,3-dimethyl-1H,2H,3H-pyrrolo[3,2-b]pyridin-1-yl}-2-[(2R,5R)-2-{[(3R)-3-fluoropiperidin-1-yl]methyl}-5-methylpiperazin-1-yl]ethan-1-one dihydrochloride]",4.6 nM,< 1000 nM,–
"C[C@@H]1CN(CC(=O)N2CC(C)(C)c3ncc(Cc4ccc(F)cc4)cc32)[C@@H](CN2CCOCC23CC3)CN1 [Example 10, 1-{6-[(4-Fluorophenyl)methyl]-3,3-dimethyl-1H,2H,3H-pyrrolo[3,2-b]pyridin-1-yl}-2-[(2R,5R)-5-methyl-2-{7-oxa-4-azaspiro[2.5]octan-4-ylmethyl}piperazin-1-yl]ethan-1-one dihydrochloride]",0.42 nM,< 1000 nM,–

# Other lines, results leading:
EC50 [1],EC50 [2],"EC50 (EVSA-T cells, 72 hours, Alamar Blue, dihydrochloride, read-out: EVSA-T prolif)",Compound
0.32 nM,< 1000 nM,–,"C[C@@H]1CN(CC(=O)N2CC(C)(C)c3ncc(Cc4ccc(F)cc4)cc32)[C@@H](CN2C[C@H](CO)OC[C@H]2C)CN1 [Example 119, 1-{6-[(4-Fluorophenyl)methyl]-3,3-dimethyl-1H,2H,3H-pyrrolo[3,2-b]pyridin-1-yl}-2-[(2R,5R)-2-{[(2R,5R)-2-(hydroxymethyl)-5-methylmorpholin-4-yl]methyl}-5-methylpiperazin-1-yl]ethan-1-one, dihydrochloride]"
–,–,2.8 nM,"CC1CC(=O)CCN1C[C@H]1CN[C@H](C)CN1CC(=O)N1CC(C)(C)c2ncc(Cc3ccc(F)cc3)cc21 (single isomer, unassigned) [Example 40, dihydrochloride]"
0.9 nM,< 1000 nM,–,"C[C@@H]1CN(CC(=O)N2CC(C)(C)c3ncc(Cc4ccc(F)cc4)cc32)[C@@H](CN2CCOCC2(C)CO)CN1 (stereo partly drawn) [Example 47, 1-{6-[(4-Fluorophenyl)methyl]-3,3-dimethyl-1H,2H,3H-pyrrolo[3,2-b]pyridin-1-yl}-2-[(2R,5R)-2-{[3-(hydroxymethyl)-3-methylmorpholin-4-yl]methyl}-5-methylpiperazin-1-yl]ethan-1-one, dihydrochloride]"
2.8 nM,< 1000 nM,–,"C[C@@H]1CN(CC(=O)N2CC(C)(C)c3ncc(Cc4ccc(F)cc4)cc32)[C@@H](CN2[C@H](CO)COC[C@H]2C)CN1 [Example 37, 1-{6-[(4-Fluorophenyl)methyl]-3,3-dimethyl-1H,2H,3H-pyrrolo[3,2-b]pyridin-1-yl}-2-[(2R,5R)-2-{[(3R,5R)-3-(hydroxymethyl)-5-methylmorpholin-4-yl]methyl}-5-methylpiperazin-1-yl]ethan-1-one, dihydrochloride]"
